Experimental data as given in patent US20230382949A1 (HEPTARES THERAPEUTICS LIMITED, priority 2020, published 2023).
Where two headings read alike, the source gives them in different places. Starred links: 1 amine or outer side, 2 acyl side, 3 side chain; linkers in the order of their positions; H or OH if unused. Non-standard residues stand in square brackets, D forms with d. Residues, ends and D or L forms follow the SMILES beside them. *: point of attachment. Ala(piperidin-4-yl) = O=C([C@H](CC1CCN([*:3])CC1)N[*:1])[*:2]; Malonyl(2,2-Me2,histaminyl) = CC(C)(C(=O)NCCc1cnc[nH]1)C(=O)*; dNMeBip = CN[C@H](Cc1ccc(-c2ccccc2)cc1)C(=O)O; dBip = N[C@H](Cc1ccc(-c2ccccc2)cc1)C(=O)O; Oic = O=C(O)[C@@H]1C[C@@H]2CCCC[C@@H]2N1; Phe(4-Br) = N[C@@H](Cc1ccc(Br)cc1)C(=O)O; X4 = CC(C)(C(=O)NCCCc1cnc[nH]1)C(=O)*; hArg = N=C(N)NCCCC[C@H](N)C(=O)O; NMeQ = CN[C@@H](CCC(N)=O)C(=O)O; Pip = O=C(O)[C@@H]1CCCCN1; Nle = CCCC[C@H](N)C(=O)O; Aib = CC(C)(N)C(=O)O

What was measured:
[1] = molecular target: T1, human Apelin receptor (Homo sapiens, UniProt P35414); experiment: β-arrestin accumulation assay, functional agonism of human Apelin receptors; assay type: cell-based
T1 construct: host or cells: CHO-K1 cells
Method in brief: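 After 16 h at 37° C., cells were exposed to increasing agonist concentrations in serum-free medium for 90 min at 37° C. Detection reagent added for 60 min in the dark; receptor activation read by fluorescence and EC50 derived from concentration-response curves.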
T1 sequence (P32121 whole entry partner, one chain of several): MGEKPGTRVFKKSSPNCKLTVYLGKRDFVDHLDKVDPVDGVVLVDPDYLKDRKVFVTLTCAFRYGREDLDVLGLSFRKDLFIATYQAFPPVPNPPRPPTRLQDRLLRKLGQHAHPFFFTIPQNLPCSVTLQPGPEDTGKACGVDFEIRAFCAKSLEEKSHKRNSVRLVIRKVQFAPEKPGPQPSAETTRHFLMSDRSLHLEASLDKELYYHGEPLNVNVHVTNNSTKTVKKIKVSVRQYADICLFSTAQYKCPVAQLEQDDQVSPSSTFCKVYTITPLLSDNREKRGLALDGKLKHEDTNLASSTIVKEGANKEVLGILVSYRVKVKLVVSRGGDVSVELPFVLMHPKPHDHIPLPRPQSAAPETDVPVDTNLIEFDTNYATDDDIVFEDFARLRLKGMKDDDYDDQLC

[2] = molecular target: T2, human Apelin receptor (Homo sapiens, UniProt P35414); experiment: cAMP accumulation assay (HTRF), functional agonism of human Apelin receptors; assay type: cell-based; details: for Emax: CHO
T2 sequence (P35414 1-380): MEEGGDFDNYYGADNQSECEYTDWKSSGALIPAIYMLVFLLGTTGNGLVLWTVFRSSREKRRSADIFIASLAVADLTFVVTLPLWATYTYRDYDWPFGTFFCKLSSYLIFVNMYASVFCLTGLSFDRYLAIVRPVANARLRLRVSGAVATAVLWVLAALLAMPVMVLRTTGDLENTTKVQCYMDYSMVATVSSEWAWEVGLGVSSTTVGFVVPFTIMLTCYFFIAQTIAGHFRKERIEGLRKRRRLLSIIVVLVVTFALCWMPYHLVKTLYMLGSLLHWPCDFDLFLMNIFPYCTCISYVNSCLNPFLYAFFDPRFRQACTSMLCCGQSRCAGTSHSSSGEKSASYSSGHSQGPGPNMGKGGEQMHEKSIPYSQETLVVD
Text: cAMP functional assay. cAMP production was quantified using the Homogeneous Time-Resolved Fluorescence (HTRF) cAMP dynamic-2 assay (Cisbio, France).

[3] = Human Apelin agonist cAMP assay, CHO cells stably expressing the human Apelin receptor, 3 uM forskolin
[4] = pEC50, Human Apelin agonist cAMP assay, CHO cells stably expressing the human Apelin receptor, 3 uM forskolin

Emax ([2]; read-out: Emax)	EC50 ([2]; read-out: pEC50 (converted))	SMILES	EC50 [1]	Emax [2, 3]	EC50 [2, 4]
–	–	CC(C)C[C@H](NC(=O)[C@@H](CCCNC(=N)N)NC(=O)[C@@H]1CCCN1C(=O)[C@H](CCCCNC(=N)N)NC(=O)[C@H](CCC(N)=O)NC(=O)C(C)(C)C(=O)NCCc1cnc[nH]1)C(=O)NC(C)(C)C(=O)N[C@@H](Cc1cnc[nH]1)C(=O)N[C@@H](CC1CCNCC1)C(=O)NCC(=O)N1[C@H](C(=O)N[C@@H](Cc2ccc(Br)cc2)C(=O)N2CCC[C@H]2C(=O)N(C)[C@H](Cc2ccc(-c3ccccc3)cc2)C(=O)O)C[C@@H]2CCCC[C@@H]21 [Example 57] ({Malonyl(2,2-Me2,histaminyl)}-Q[hArg]P[dR]L[Aib]H[Ala(piperidin-4-yl)]G[Oic][Phe(4-Br)]P[dNMeBip]-OH)	> 10000 nM	45.9%	63.1 nM
–	–	CC(C)C[C@H](NC(=O)[C@@H](CCCNC(=N)N)NC(=O)[C@@H]1CCCN1C(=O)[C@H](CCCCNC(=N)N)NC(=O)[C@H](CCC(N)=O)N(C)C(=O)C(C)(C)C(=O)NCCc1cnc[nH]1)C(=O)NC(C)(C)C(=O)N[C@@H](Cc1c[nH]cn1)C(=O)N[C@@H](CC1CCNCC1)C(=O)NCC(=O)N1[C@H](C(=O)N[C@@H](Cc2ccc(Br)cc2)C(=O)N2CCC[C@H]2C(=O)N[C@H](Cc2ccc(-c3ccccc3)cc2)C(=O)O)C[C@@H]2CCCC[C@@H]21 [Example 58] ({Malonyl(2,2-Me2,histaminyl)}-[NMeQ][hArg]P[dR]L[Aib]H[Ala(piperidin-4-yl)]G[Oic][Phe(4-Br)]P[dBip]-OH)	> 100000 nM	33%	794 nM
–	–	CCCC[C@H](NC(=O)[C@@H]1C[C@@H]2CCCC[C@@H]2N1C(=O)CNC(=O)[C@H](CC1CCNCC1)NC(=O)[C@H](Cc1c[nH]cn1)NC(=O)[C@@H](C)NC(=O)[C@H](CC(C)C)NC(=O)[C@H](CCCNC(=N)N)NC(=O)[C@@H]1CCCN1C(=O)[C@H](CCCNC(=N)N)NC(=O)[C@H](CCC(N)=O)NC(=O)C(C)(C)C(=O)NCCc1cnc[nH]1)C(=O)N1CCC[C@H]1C(=O)N[C@H](Cc1ccc(-c2ccccc2)cc1)C(=O)O [Example 59] ({Malonyl(2,2-Me2,histaminyl)}-QRPRL[dA]H[Ala(piperidin-4-yl)]G[Oic][Nle]P[dBip]-OH)	> 10000 nM	48.1%	100 nM
59%	50.1 nM	CCCC[C@H](NC(=O)[C@@H]1C[C@@H]2CCCC[C@@H]2N1C(=O)CNC(=O)[C@H](CC1CCNCC1)NC(=O)[C@H](Cc1ccc(Br)cc1)NC(=O)C(C)(C)NC(=O)[C@H](CC(C)C)NC(=O)[C@@H](CCCNC(=N)N)NC(=O)[C@@H]1CCCN1C(=O)[C@H](CCCCNC(=N)N)NC(=O)[C@H](CCC(N)=O)NC(=O)C(C)(C)C(=O)NCCc1cnc[nH]1)C(=O)N1CCC[C@H]1C(=O)N[C@H](Cc1ccc(-c2ccccc2)cc1)C(=O)O [Example 60] ({Malonyl(2,2-Me2,histaminyl)}-Q[hArg]P[dR]L[Aib][Phe(4-Br)][Ala(piperidin-4-yl)]G[Oic][Nle]P[dBip]-OH)	> 10000 nM	–	–
–	–	CC(C)C[C@H](NC(=O)[C@@H](CCCNC(=N)N)NC(=O)[C@@H]1CCCN1C(=O)[C@H](CCCCNC(=N)N)NC(=O)[C@H](CCC(N)=O)NC(=O)C(C)(C)C(=O)NCCCc1cnc[nH]1)C(=O)NC(C)(C)C(=O)N[C@@H](Cc1c[nH]cn1)C(=O)N[C@@H](CC1CCNCC1)C(=O)NCC(=O)N1[C@H](C(=O)N[C@@H](Cc2ccc(Br)cc2)C(=O)N2CCC[C@H]2C(=O)N[C@H](Cc2ccc(-c3ccccc3)cc2)C(=O)O)C[C@@H]2CCCC[C@@H]21 [Example 61] (X4-Q[hArg]P[dR]L[Aib]H[Ala(piperidin-4-yl)]G[Oic][Phe(4-Br)]P[dBip]-OH)	> 100000 nM	41.8%	10 nM
31.7%	100 nM	CCCC[C@H](NC(=O)[C@@H]1C[C@@H]2CCCC[C@@H]2N1C(=O)[C@H](C)NC(=O)[C@H](CC1CCNCC1)NC(=O)[C@H](Cc1ccc(Br)cc1)NC(=O)C(C)(C)NC(=O)[C@H](CC(C)C)NC(=O)[C@@H](CCCNC(=N)N)NC(=O)[C@@H]1CCCCN1C(=O)[C@H](CCCCNC(=N)N)NC(=O)[C@H](CCC(N)=O)NC(=O)C(C)(C)C(=O)NCCc1cnc[nH]1)C(=O)N1CCC[C@H]1C(=O)N[C@H](Cc1ccc(-c2ccccc2)cc1)C(=O)O [Example 62] ({Malonyl(2,2-Me2,histaminyl)}-Q[hArg][Pip][dR]L[Aib][Phe(4-Br)][Ala(piperidin-4-yl)]A[Oic][Nle]P[dBip]-OH)	> 10000 nM	–	–
